In patent publication US7858615B2, “(S)-(-)-1-(4-fluoroisoquinolin-5-Yl)Sulfonyl-2-methyl-1,4-homopiperazine hydrochloride dihydrate” (Kowa Co., Ltd., priority 2004, dated 2010):
“Also recorded” adds a separate entry of the source. Structures can show the parent of a compound that is named as a salt.

Legend:
[1] = Test Example 2 (Hygroscopicity): weight increase in open weighing bottle at 25° C. and controlled RH; format: physicochemical; details: for hygroscopic stability in words: RH 33% or 92%, time-dependent; for water content reached with elapsed time: eventual value, hydrochloride
Method: Each of the dihydrate of the present invention produced in Example 1 and (S)-(−)-1-(4-fluoroisoquinolin-5-yl)sulfonyl-2-methyl-1,4-homopiperazine hydrochloride anhydrate (each 100 mg) was placed in a weighing bottle. The bottle was allowed to stand in a container maintained at 25° C. and an RH of 33% or 92%, with the container being opened. The weighing bottle was time-dependently weighed, to thereby determine increase in weight for evaluation of hygroscopicity. FIGS. 6 and 7 show the results.

[2] = Test Example 1 (Thermal Stability): storage in sealed containers in thermostats; format: physicochemical; details: for Percent remain (%): sealed container
Method: The dihydrate of the present invention produced in Example 1 was placed in sealable containers such that each container included 1 g of the dihydrate. After sealing, these containers were maintained in thermostats at 40, 60, and 80° C. for 7 and 14 days, so as to evaluate thermal stability.

hygroscopic stability in words [1] | water content reached with elapsed time ([1]; relative humidity 92%) | water content reached with elapsed time ([1]; relative humidity 92%, listed as anhydrate) | water content after seven days ([1]; relative humidity 92%, seven days) | thermal stability in words ([2]; after storage at 40° C., 60° C., or 80° C. for two weeks) | Percent remain (%) ([2]; storage temp. 40° C., storage period 7 days) | Percent remain (%) ([2]; storage temp. 40° C., storage period 14 days) | Percent remain (%) ([2]; storage temp. 60° C., storage period 7 days) | Percent remain (%) ([2]; storage temp. 60° C., storage period 14 days) | Percent remain (%) ([2]; storage temp. 80° C., storage period 7 days) | Percent remain (%) ([2]; storage temp. 80° C., storage period 14 days) | thermal stability (decomposition or undesired reaction) in words ([2]; stored at 80° C. for two weeks) | SMILES | change of water content (hygroscopic behavior) in words ([1]; relative humidity 92% RH, 14 days, hydrochloride dihydrate)
poor hygroscopic stability | about 40% | 40% | 40% |  |  |  |  |  |  |  |  | C[C@H]1CNCCCN1S(=O)(=O)c1cccc2cncc(F)c12.Cl [anhydrous crystals, (S)-(−)-1-(4-fluoroisoquinolin-5-yl)sulfonyl-2-methyl-1,4-homopiperazine hydrochloride] | 
excellent hygroscopic stability |  |  |  | high thermal stability | 100.0% | 99.6% | 99.6% | 99.8% | 99.8% | 99.8% | does not decompose | C[C@H]1CNCCCN1S(=O)(=O)c1cccc2cncc(F)c12 [dihydrate, (S)-(−)-1-(4-fluoroisoquinolin-5-yl)sulfonyl-2-methyl-1,4-homopiperazine hydrochloride dihydrate] | constant; also recorded: no change in its water content
